Measurements published in patent publication US20160160179A1, “METHOD FOR OBTAINING A POPULATION OF ISOLATED BRITE ADIPOCYTES” (INSERM (INSTITUT NATIONAL DE LA SANTÉ ET DE LA RECHERCHE …, priority 2013, published 2016).
Counter-ions that a name gives are not always drawn.

How the values were obtained:
[1] = system: MSCA1+ cells (CD45−/CD34+/CD31−/CD271+/MSCA1+); test: In vitro adipogenesis of the immunoselected MSCA1+ cell subset; type: cell-based, human; details: IBMX stimulation
Text: (§1) An immuno-selection/depletion approach was developed to obtain the native progenitor cell subsets starting from 50.10^6 to 150.10^6 SVF cells. The total progenitor cell population (CD34+/CD31− cells) was obtained in two steps: immune cells were first removed using CD45 positive cell-depletion step (CD45-depletion kit from Stemcell Technologies, Grenoble, France) followed by endothelial cell depletion step using an anti-CD31-depletion kit (R&D Systems, Lille, France) according to manufacturer's protocol. To further isolate the distinct progenitor cell subsets, the Mscal-positive cells were selected from the CD45−/CD31− cells, the −/CD271 positive cells were selected from the CD45−/CD31−/MSCA1− cells and the CD45−/CD31−/MSCA1−/CD271− (−/−) cells using CD34 immuno-magnetic selection kits (MSCA1+, CD271+ and CD34+ immuno-magnetic selection kits were from Miltenyi Biotec, Paris, France). The purity of each fraction was assessed after selection by flow cytometry analyses.
(§2) Total RNAs were extracted using the RNeasy kit (Qiagen). […] RNAs were reverse-transcribed using Superscript® II kit (Invitrogen). TaqMan® Primers are listed in supplemental data Table 1.
Cells or small pieces of whole AT were fixed (paraformaldehyde 4%, room temperature for 15 min for cultured cells and up to 1 h for whole AT). […]

[2] = system: whole native progenitor cells (CD45−/CD34+/CD31−); test: In vitro adipogenesis of whole native progenitor cells; type: cell-based, human; details: 0.25 mM IBMX for 3 days, ITTC medium until day 10
Text: as §1

[3] = system: native human AT progenitor cells
Procedure: 120 000 cells were plated per cm^2 in growth medium (ECGM MV) supplemented with […] penicillin-streptomycin. 48 h after seeding, medium was changed into basal defined medium (ECBM) supplemented with […] penicillin-streptomycin, 66 nmol/L Insulin, 1 nmol/L Triiodothyronine, 0.1 μg/ml human Transferrin, 100 nmol/L Cortisol (ITTC, Control) supplemented or not with 3 μmol/L Rosiglitazone or 0.25 mM isobuthylmethaxantine (IBMX). After 3 days, medium was changed and cells were maintained in ITTC medium until day 10. Cells were fixed (paraformaldehyde 4%, 15 min, RT), and stained with Bodipy 493/503 (10 μg/ml, 15 min, Invitrogen) and Hoechst 33342 (5 μg/ml, 15 min, Invitrogen). Stainings were observed by inversed fluorescent microscope (Nikon Eclipse TE300) and 5 pictures were randomly taken under 20X objective (numeric camera and acquisition software NIS-Elements 2.5 BR, Nikon®). Differentiation area (Bodipy stained area, μm^2) was measured with ImageJ software and normalized by nuclei cell number in order to obtain the differentiation area (μm^2) per cell. Total RNAs were extracted using the RNeasy kit (Qiagen). The RNA concentration was measured by fluorimetric assay (Ribogreen, Invitrogen). RNAs were reverse-transcribed using Superscript® II kit (Invitrogen). TaqMan® Primers are listed in supplemental data Table 1. The amplification reaction was done in duplicate on 15 ng of the cDNA samples in a final volume of 20 μL in 96-well reaction plates (Applied Biosystems) in a GeneAmp 7500 detection system (Applied Biosystems). All reactions were performed under the same conditions: 50° C. for 2 minutes, 95° C. for 10 minutes, 40 cycles of 95° C. for 15 seconds, and 60° C. for 1 minute. Results were analyzed with the GeneAmp 7500 software and all values were normalised to 18S rRNA levels. Progenitor cells were cultured under adipogenic conditions with or without 50 μM or 500 μM of tetramisole hydrochloride, an alkaline phosphatase inhibitor. After 3 to 10 days, Bodipy staining was performed or RNAs extracted. Progenitor cells were seeded at the density of 90000/cm2 cells in 12 well-plates. After 24 hours, cells were transfected with 500 ng/mL of MISSION® esiRNA against tissue non-specific alkaline phosphatase (MSCA1) or GFP as negative control with 1 μL of lipofectamine® 2000 (invitrogen) in 1 mL of basal medium. After 12 hours, medium was removed and cells were rinsed once with PBS and cultured under adipogenic conditions for 3 to 10 days and RNAs were extracted.

[4] = system: Progenitor cells; test: BMP7 adipogenic culture protocol; type: cell-based, human; details: 50 ng/mL for 2 days, then 9 days in ITTC
Procedure: Progenitor cells were treated during 2 days with recombinant human BMP7 (50 ng/mL) then 9 days in adipogenic medium (ITTC).
MSCA1 gene expression and activity were measured. UCP1 gene expression was measured by RT-PCR.
as §2

CC(C)Cn1c(=O)n(C)c(=O)c2[nH]cnc21 [IBMX, 3-isobutyl-1-methylxanthine]
differentiation (lipid laden cells) ([1]; 0.25 mM): marked appearance of lipid laden cells | UCP1-positive cell clusters ([1]; immunofluorescence): only found in cells from the MSCA1+ subset | differentiation [2]: only slightly and insignificantly increased

c1ccc(C2CN3CCSC3=N2)cc1 (stereo not shown) [tetramisole, tetramisole hydrochloride]
total number of nucleated cells ([3]; 50 μM or 500 μM, adipogenic culture conditions): without altering | adipocyte differentiation ([3]; 50 μM or 500 μM, adipogenic culture conditions, Bodipy staining): concentration-dependent decrease | expression of adipogenic and adipocyte-specific genes after the commitment period ([3]; day 3): No statistically significant effect | expression of adipogenic transcription factors PPARγ2, CHREBP, C/EBPα and adipocyte-specific genes LPL, GPDH, PLIN1 ([3]; day 10): decreased

B1: BMP7: recombinant human BMP7, a Bone Morphogenetic Protein (protein, UniProt P18075 293-431, looked up)
Bone morphogenetic protein 7: STGSKQRSQNRSKTPKNQEALRMANVAENSSSDQRQACKKHELYVSFRDLGWQDWIIAPEGYAAYYCEGECAFPLNSYMNATNHAIVQTLVHFINPETVPKPCCAPTQLNAISVLYFDDSSNVILKKYRNMVVRACGCH
activity of the MSCA1 gene [4]: significantly increased | expression of the MSCA1 gene [4]: significantly increased | UCP1 gene expression ([4]; RT-PCR): significant increase
